Here are results for 6 compounds from patent US10160772B2, “5,6-dihydro-4H-benzo[b]thieno-[2,3-d]azepine derivatives” (PULMOCIDE LIMITED, priority 2014, dated 2018).

Holding throughout (type): cell-based
The test system of one data set is RSV A2 strain. Put plainly: RSV A2-induced CPE in Hep2 cells. The conditions noted are these: human respiratory syncytial virus; for IC50: HEp-2, 120 h, read-out: RSV A2 CPE IC50; for inhibition at 0.1 µg/mL: at 0.1 μg/mL. As to the method:
(§1) Biological Testing: Experimental Methods Assessment of RSV Induced CPE in Hep2 Cells
(§2) Hep2 cells were seeded (10^3/well/50 μL) in 384-well plates (Catalogue number 353962, BD Falcon, Oxford, UK) in 5% serum free-DMEM containing 2 mM L-glutamine and 1 mM sodium pyruvate one day before infection. RSV A2 strain (#0709161v, NCPV, Public Health England, Wiltshire) or RSV B Washington strain (VR-1580, ATCC, Manassas, Va. 20108) virus solutions were prepared in serum free-DMEM with 2 mM L-glutamine and 1 mM sodium pyruvate, and then added (50 μL/well) to achieve a final virus concentration of 1 MOI for RSV A and 0.1MOI for RSV B. Simultaneously test compounds (0.5 μL DMSO solution) were added to 100 μL of Hep2 cell culture with virus solution to provide a final DMSO solution of 0.5%. Plates were incubated (37° C./5% CO2) for 5 days for studies using RSV A2 strain or 6 days for those using RSV B strain, and then resazurin sodium salt (5 μL of 0.03% solution; Sigma-Aldrich, Dorset, UK) was added to each well and the plate incubated for a further 6 hr (37° C. and 5% CO2). The fluorescence of each well [545 nm (excitation)/590 nm (emission)] was determined using a multi-scanner (Clariostar: BMG, Buckinghamshire, UK). The percentage inhibition for each well was calculated and the IC50, IC75 and IC90 values were calculated from the concentration-response curve generated for each test compound.

In another data set the test system is RSV B Washington strain. Nature of the data set: RSV B-induced CPE in Hep2 cells. Conditions: human respiratory syncytial virus; for IC50: HEp-2, 144 h, read-out: RSV B CPE IC50. As to the method:
as §1, §2

Data set [1] has as its system RSV A2 F-protein expression. Nature of the data set: RSV A2 F-protein expression in BEAS2B bronchial epithelial cells. Conditions: human respiratory syncytial virus, BEAS-2B, 72 h, read-out: RSV A2 F-protein IC50. On the procedure:
Assessment of RSV F Protein Expression in BEAS2B Bronchial Epithelial Cells
An early event which follows the infection of epithelial cells by RSV is the expression of RSV F-protein on the cells' surface. BEAS2B cells (SV40-immortalised human bronchial epithelial cell line) were grown in 96 well plates. Once more than 70% confluent, cells were infected with RSV A2 (#0709161v, NCPV, Public Health England, Wiltshire) at an MOI of 0.01 in clear RPMI-1640 medium (Life technologies, Paisley, UK) with 2% FBS (Life technologies, Paisley, UK), and incubated for 3 days (37° C./5% CO2).
Supernatant was aspirated and the cells were fixed with 4% formaldehyde (100 μL in PBS solution) for 20 min, washed 3 times with washing buffer (200 μL; PBS containing 0.05% Tween-20) and incubated with blocking solution (100 μL; 5% Marvel milk in PBS) for 1 hr. Cells were then washed with washing buffer (200 μL) and incubated for 1 hr at 37° C. with anti-RSV (2F7; mouse monoclonal, lot 160290, Cat. No. ab43812, Abcam plc, Cambridge, UK) F-fusion protein antibody (50 μL; prepared at a 1:1000 dilution in 5% milk/PBS-tween). After washing, cells were incubated with an HRP-conjugated anti-mouse IgG antibody (50 μL prepared at a 1:2000 dilution in 5% milk in PBS; lot 00095437, Cat. No. P0447, Dako UK Ltd, Cambridgeshire, UK) for 1 hr. Cells were washed twice with washing buffer and once with PBS. TMB substrate (100 μL; substrate reagent pack lot 320436, Cat. No. DY999, R&D Systems, Inc. Abingdon, UK) was then added and the reaction was stopped by the addition of aq sulfuric acid (50 μL; 2N). The resultant signal was determined colourimetrically (OD: 450 nm with a reference wavelength of 655 nm) in a microplate reader (Multiskan FC®, ThermoFisher Scientific). Cells were then washed and 1% crystal violet solution (50 μL; lot SLB4576, Cat. No. HT90132-1L, Sigma-Aldrich) was applied for 30 min. After washing with PBS (200 μL) 3 times, 1% SDS (100 μL) was added to each well, and plates were shaken lightly for 1 hr prior to reading the absorbance at 595 nm. The measured OD450-655 readings were corrected for cell number by dividing the OD450-655 by the OD595 readings. The percentage inhibition for each well was calculated and the IC50 value derived from the concentration-response curve generated for each test compound.

Data set [2] in a line: Cell viability: resazurin assay in Hep2 cells. The conditions noted are these: human, 5 days incubation. On the procedure:
Cell Viability: Resazurin Assay Hep2 cells were seeded in 384-well plates (10^3/well/50 μL; BD Falcon Ref 353962) in FBS DMEM (5%, containing 2 mM L-glutamine and 1 mM sodium pyruvate) one day before experimentation. Serum-free DMEM (50 μL) was added to test wells while for control wells the media was removed and sterile water (100 μL) was added. Test compounds (0.5 μL DMSO solution) were added to give a final DMSO concentration of 0.5%. Hep2 cells were incubated with each test compound for 5 days (37° C./5% CO2 in 5% FBS) and then resazurin stock solution (5 μL; 0.03%) was added to each well and the plate incubated further for a further 6 hrs (37° C./5% CO2). The fluorescence of each well at 545 nm (excitation) and 590 nm (emission) was determined using a multi-scanner (Clariostar: BMG Labtech). The percentage loss of cell viability was calculated for each well relative to vehicle (0.5% DMSO) treatment. Where appropriate, a CC50 value was calculated from the concentration-response curve generated from the concentration-response curve for each test compound.

Setting [3] is: Hep2 cells, RSV A2 1 MOI, 5 days, resazurin.
[4] abbreviates: HEp-2, Hep2 cells, at 0.01 μg/mL (footnote 2), read-out: RSV A2 CPE % Inhibition.
[5] abbreviates: Hep2 cells, RSV B Washington 0.1 MOI, 6 days, resazurin.
Setting [6] is: HEp-2, Hep2 cells, at 1 μg/mL, read-out: RSV B CPE % Inhibition.
Setting [7] is: HEp-2, Hep2 cells, read-out: RSV A2 CPE % Inhibition.

Like-named read-outs stand apart in the source and are kept apart here. Where only a bound is given, the exact number is not on record here.

For the compound `CCc1cccc2nc(-c3cc4c(s3)-c3ccccc3N(C(=O)c3ccc(NC(=O)c5cc(C)cnc5N5CC6(CCOCC6)C5)cc3)CC4)[nH]c12` [Example 3, N-(4-(2-(7-Ethyl-1H-benzo[d]imidazol-2-yl)-5,6-dihydro-4H-benzo[b]thieno[2,3-d]azepine-6-carbonyl)phenyl)-5-methyl-2-(7-oxa-2-azaspiro[3.5]nonan-2-yl)nicotinamide], the figures for the IC50 (in the data set on RSV A2 strain; in the data set with RSV B Washington strain; in data set [1]) were 2.6 nM, 8.6 nM and 0.78 nM, respectively. Further, the inhibition (usually the relative decrease from the control value, in per cent) at 0.01 µg/mL in the data set with RSV A2 strain (HEp-2, read-out: RSV A2 CPE % Inhibition) turned out to be 100%. Further, the inhibition at 1 µg/mL in the data set on RSV B Washington strain (HEp-2, read-out: RSV B CPE % Inhibition) is 100%. Besides, the CC50 (as a rule, the concentration at which the toxic effect on the cells reaches its halfway point) at 5 days in data set [2] was above 14100 nM.
Regarding `C#Cc1cnc(N2CC3(CCOCC3)C2)c(C(=O)Nc2ccc(C(=O)N3CCc4cc(-c5nc6ccccc6[nH]5)sc4-c4ccccc43)cc2)c1` [Example 5, N-(4-(2-(1H-Benzo[d]imidazol-2-yl)-5,6-dihydro-4H-benzo[b]thieno[2,3-d]azepine-6-carbonyl)phenyl)-5-ethynyl-2-(7-oxa-2-azaspiro[3,5]nonan-2-yl)nicotinamide], the IC50 (as a rule, the concentration that inhibits the measured activity by half) in the data set on RSV A2 strain (setting [3]) was found to be 6.9 nM; with RSV B Washington strain (setting [5]) it was 36.1 nM; in data set [1], 0.11 nM. Also, the inhibition at 0.01 µg/mL with RSV A2 strain (setting [4]) turned out to be 100%. Besides, in the data set on RSV B Washington strain (setting [6]), the inhibition at 1 µg/mL came out at 92%. In data set [2], this compound yielded a CC50 at 5 days above 14500 nM.
`O=C(Nc1ccc(C(=O)N2CCc3cc(-c4nc5ccccc5[nH]4)sc3-c3ccccc32)cc1)c1cc(C2CC2)cnc1N1CC2(CCOCC2)C1` [Example 6, N-(4-(2-(1H-Benzo[d]imidazol-2-yl)-5,6-dihydro-4H-benzo[b]thieno[2,3-d]azepine-6-carbonyl)phenyl)-5-cyclopropyl-2-(7-oxa-2-azaspiro[3,5]nonan-2-yl)nicotinamide]: the values for the half-inhibitory concentration (IC50) (in the data set with RSV A2 strain (setting [3]); in the data set on RSV B Washington strain (setting [5]); in data set [1]) were 2.6 nM, 14.9 nM and 0.22 nM, respectively. Moreover, the inhibition at 0.01 µg/mL with RSV A2 strain (setting [4]) is 100%. Moreover, the inhibition at 1 µg/mL in the data set on RSV B Washington strain (setting [6]) is 100%. Moreover, the CC50 at 5 days in data set [2] was above 14100 nM.
For the compound `O=C(Nc1ccc(C(=O)N2CCc3cc(-c4nc5ccccc5[nH]4)sc3-c3ccccc32)cc1)c1cccnc1N1CC2(CCOCC2)C1` [Example 7], the IC50 is 0.12 nM in the data set with RSV A2 strain (setting [3]), 28.7 nM in the data set with RSV B Washington strain (setting [5]) and 0.94 nM in data set [1]. Moreover, the inhibition at 0.1 µg/mL in the data set on RSV A2 strain (setting [7]) came out at 100%. In the data set with RSV B Washington strain (setting [6]), the inhibition at 1 µg/mL was 100%. The CC50 at 5 days in data set [2] was above 15000 nM.
For `N#Cc1cccc2nc(-c3cc4c(s3)-c3ccccc3N(C(=O)c3ccc(NC(=O)c5cccnc5N5CC6(CCOCC6)C5)cc3)CC4)[nH]c12` [Example 12, N-(4-(2-(7-cyano-1H-benzo[d]imidazol-2-yl)-5,6-dihydro-4H-benzo[b]thieno[2,3-d]azepine-6-carbonyl)phenyl)-2-(7-oxa-2-azaspiro[3.5]nonan-2-yl)nicotinamide], the IC50 in the data set on RSV A2 strain (setting [3]) came out at 0.94 nM; with RSV B Washington strain (setting [5]), 111 nM; in data set [1], 0.21 nM. Moreover, the inhibition at 0.1 µg/mL in the data set on RSV A2 strain (setting [7]) came to 100%. Also, the inhibition at 1 µg/mL with RSV B Washington strain (setting [6]) worked out at 100%. Moreover, the CC50 at 5 days in data set [2] was above 14500 nM.
Take `Cc1cnc(N2CC3(CCOCC3)C2)c(C(=O)Nc2ccc(C(=O)N3CCc4cc(-c5nc6cccc(F)c6[nH]5)sc4-c4ccccc43)cc2)c1` [Example 14, N-(4-(2-(7-fluoro-1H-benzo[d]imidazol-2-yl)-5,6-dihydro-4H-benzo[b]thieno[2,3-d]azepine-6-carbonyl)phenyl)-5-methyl-2-(7-oxa-2-azaspiro[3.5]nonan-2-yl)nicotinamide]: the IC50 in the data set with RSV A2 strain (setting [3]) was 0.24 nM; with RSV B Washington strain (setting [5]) it was 0.99 nM; in data set [1], 0.31 nM. The inhibition at 0.01 µg/mL in the data set with RSV A2 strain (setting [4]) worked out at 93%. Also, in the data set with RSV B Washington strain (setting [6]), the inhibition at 1 µg/mL was determined as 100%. Further, the CC50 at 5 days in data set [2] is above 14300 nM.
